Test results as given in patent publication US20080108674A1, “CATIONIC ANTISEPTIC AND DYE FORMULATION” (ENTURIA, INC., priority 2006, published 2008).

Columns and labels:
[1] = Compatibility of an anionic dye alone with an aqueous CHG solution (Example 1); format: physicochemical; details: 0.13% w/v dye in distilled water, no cationic excipient; after two drops
Experimental: The compatibility of an anionic dye alone with an aqueous chlorhexidine gluconate (CHG) solution (i.e., without the addition of a cationic excipient) was tested. A 0.13% w/v anionic dye solution was prepared by dissolving 0.13 g FD&C Yellow 6 in 100 ml of distilled water. A 20% w/v aqueous CHG solution was then added drop wise to the dye solution.

[2] = Three-month room temperature storage of aqueous CHG / cationic dye solutions (Examples 7, 8); format: physicochemical; details: 2.0% w/v CHG and 0.05% w/v dye in water
Experimental: The chemical structure and chemical category of each of these dyes are presented below. Crystal violet, malachite green, and Victoria pure blue BO all belong to the same chemical family, triarylmethane. Bismark brown and acriflavine each belong to a different chemical family, azo and acridine, respectively. [drawing 3] [drawing 4]
Aqueous solutions of 2.0% w/v CHG and 0.05% w/v dye were prepared for each of the dyes indicated above to test the stability of the solutions. Each aqueous solution was prepared using a Class A 100 ml volumetric flask, in which 0.050 grams of dye were dissolved in 30.0 ml of distilled water. Additionally, 10.6 g of 20% w/v aqueous CHG solution was added to the flask. The solution was then brought up to volume with distilled water. The solutions were stored for three months at room temperatures.
In particular, the dye tested was azure C, which is a cationic dye that belongs to the thiazin family. Its positive charge comes from a tertiary sulfur atom instead of a quaternary nitrogen atom. The chemical structure and chemical category of azure C is presented below. [drawing 5]
An aqueous solution of 2.0% w/v CHG and 0.05% w/v azure C dye was prepared to test the stability of the solution. The solution was prepared similar to the preparation of the solutions in Example 7. […]

precipitate on drop wise addition of 20% w/v aqueous CHG solution to the dye solution [1] | Compound | time solution stable and dye compatible ([2]; room temperature) | visible precipitate ([2]; stored three months at room temperature)
precipitate was formed | O=S(=O)([O-])c1ccc(N=Nc2c(O)ccc3cc(S(=O)(=O)[O-])ccc23)cc1.[Na+].[Na+] [FD&C Yellow 6, FD&C Yellow No. 6 (Sunset Yellow FCF)] | – | –
– | CNc1ccc2nc3ccc(N)cc3[s+]c2c1.[Cl-] [azure C] | at least three months | no visible precipitate
